In PubChem BioAssay (NCI):
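Interpolation was linear, between the two tested concentrations surrounding the appropriate level; five concentrations were tested over 48 hours in 96-well plates. Definition used: TGI = concentration required for complete inhibition of growth.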

What was measured:
Experiment in all cases: NCI-60 cell line screen, 48 h
[1] = system: NCI-H23 lung
[2] = system: PC-3 prostate
[3] = system: EKVX NSCLC
[4] = system: OVCAR-4 ovarian
[5] = system: SF-539 CNS
[6] = system: NCI-H226 lung
[7] = system: SNB-19 CNS
[8] = system: SW-620 colon
[9] = system: RPMI-8226 leukemia
[10] = system: SK-MEL-28 melanoma
[11] = system: MDA-N
[12] = system: 786-0 renal
[13] = system: LOX IMVI melanoma
[14] = system: KM12 colon
[15] = system: MOLT-4 leukemia
[16] = system: NCI/ADR-RES ovarian
[17] = system: SK-OV-3 ovarian
[18] = system: HL-60(TB) leukemia

SMILES	TGI [1]	TGI [2]	TGI [3]	TGI [4]	TGI [5]	TGI [6]	TGI [7]	TGI [8]	TGI [9]	TGI [10]	TGI [11]	TGI [12]	TGI [13]	TGI [14]	TGI [15]	TGI [16]	TGI [17]	TGI [18]
CC(C)(C)OC(=O)NCCNCCNc1ccccc1	> 100 µM	> 100 µM	> 100 µM	> 100 µM	> 100 µM	> 100 µM	> 100 µM	> 100 µM	> 100 µM	> 100 µM	> 100 µM	> 100 µM	> 100 µM	> 100 µM	> 100 µM	> 100 µM	> 100 µM	
CN(C)c1nncc2n[nH]nc12	> 100 µM	> 100 µM	> 100 µM	> 100 µM	> 100 µM	> 100 µM		> 100 µM	> 100 µM	> 100 µM	> 100 µM	> 100 µM	> 100 µM	> 100 µM	> 100 µM	> 100 µM	> 100 µM	> 100 µM
Cc1[nH]c(=O)[nH]c1C(=O)c1ccc(-n2ccnc2)cc1				> 100 µM	> 100 µM	> 100 µM	> 100 µM	> 100 µM	> 100 µM	> 100 µM		> 100 µM	> 100 µM	> 100 µM	> 100 µM		> 100 µM	> 100 µM
CC(=O)O[C@@]12CO[C@@H]1C[C@@H](O)[C@@]1(C)C(=O)[C@H](O)C3=C(C)[C@@H](OC(=O)[C@H](O)[C@@H](NC(=O)c4ccccc4)c4ccccc4)C[C@@](O)([C@@H](OC(=O)c4ccccc4)C12)C3(C)C (stereo partly drawn)		> 100 µM	> 100 µM	> 100 µM	0.0579 µM	81.9 µM	> 100 µM	> 100 µM	> 100 µM	> 100 µM		> 100 µM	41.9 µM		> 42.5 µM	74.4 µM	> 100 µM	> 39.9 µM
O=C1c2ccccc2C(=O)C1C(c1ccc(F)cc1)C1C(=O)c2ccccc2C1=O	> 100 µM		> 100 µM	> 100 µM	> 100 µM	> 100 µM	> 100 µM	> 100 µM	> 100 µM	> 100 µM		> 100 µM	> 100 µM	> 100 µM	> 100 µM		> 100 µM	> 100 µM
CCNC12CCC(C1)C(C)(C)C2=O (stereo not drawn)	> 100 µM	> 100 µM	> 100 µM	> 100 µM		> 100 µM	> 100 µM	> 100 µM	> 100 µM	> 100 µM	> 100 µM	> 100 µM	> 100 µM	> 100 µM	> 100 µM	> 100 µM	> 100 µM	> 100 µM
C/C=C1\CN2CCc3c([nH]c4ccccc34)C2C=C1CCO (stereo not drawn)	> 340 µM		> 340 µM		> 340 µM	> 340 µM	> 340 µM	> 340 µM	> 340 µM	> 340 µM		> 340 µM	> 340 µM	> 340 µM	> 340 µM		> 340 µM	> 340 µM
